Test results reported in patent US20080026996A1, “Selective Vpac2 Receptor Reptide Agonists” (ELI LILLY AND COMPANY, priority 2004, published 2008).
Where a SMILES comes first, the peptide text is derived from it. Where no end group is shown, it is not given here. [ ]: non-standard residue; d: D form. The star is where a group is joined. Hexanoyl = CCCCCC(=O)*; Aib = CC(C)(N)C(=O)O

Assays:
[1] = Rat serum stability studies (remaining active peptide by DiscoveRx cAMP on CHO-VPAC2 cells); assay type: in vitro ADME
In short: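 EC50 from a DiscoveRx cAMP read-out on CHO-VPAC2 cells indexes how much peptide stays active after 18 h in rat serum at 37° C without aprotinin, against an aprotinin-protected 4° C aliquot.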

human VPAC2 [2] = molecular target: T1, human VPAC2 (Homo sapiens, UniProt P41587); test: Filter binding assay, membranes of stable VPAC2 cell line, 125I-labeled VIP tracer (Table 2); details: read-out: Human VPAC2 Receptor Binding
T1 construct: expressed in transfected cells
T1 sequence (P41587 24-438): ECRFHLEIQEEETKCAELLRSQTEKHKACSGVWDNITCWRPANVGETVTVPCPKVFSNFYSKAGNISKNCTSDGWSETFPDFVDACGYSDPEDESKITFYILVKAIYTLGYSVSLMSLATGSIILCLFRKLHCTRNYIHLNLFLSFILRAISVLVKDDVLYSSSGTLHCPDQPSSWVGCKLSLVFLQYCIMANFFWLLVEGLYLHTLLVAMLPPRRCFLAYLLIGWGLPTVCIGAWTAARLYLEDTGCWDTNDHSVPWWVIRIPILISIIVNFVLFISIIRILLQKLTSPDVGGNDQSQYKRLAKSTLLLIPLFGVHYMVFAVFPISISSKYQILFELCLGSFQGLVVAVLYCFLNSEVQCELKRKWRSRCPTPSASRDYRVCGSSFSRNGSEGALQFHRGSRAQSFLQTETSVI
In short: (§1)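 Radioligand displacement was measured with 2.5 μg membrane protein per well and roughly 40000 cpm of iodinated tracer. After a 1-hour incubation, bound and free label were separated on BSA-blocked glass-fibre filters and quantified by scintillation.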

human VPAC1 = molecular target: T2, human VPAC1 (Homo sapiens, UniProt P32241); test: Filter binding assay, membranes of cells transiently transfected with human VPAC1, 125I-labeled VIP tracer (Table 2); design: expressed in transfected cells; details: read-out: Human VPAC1 Receptor Binding
T2 sequence (P32241 31-457): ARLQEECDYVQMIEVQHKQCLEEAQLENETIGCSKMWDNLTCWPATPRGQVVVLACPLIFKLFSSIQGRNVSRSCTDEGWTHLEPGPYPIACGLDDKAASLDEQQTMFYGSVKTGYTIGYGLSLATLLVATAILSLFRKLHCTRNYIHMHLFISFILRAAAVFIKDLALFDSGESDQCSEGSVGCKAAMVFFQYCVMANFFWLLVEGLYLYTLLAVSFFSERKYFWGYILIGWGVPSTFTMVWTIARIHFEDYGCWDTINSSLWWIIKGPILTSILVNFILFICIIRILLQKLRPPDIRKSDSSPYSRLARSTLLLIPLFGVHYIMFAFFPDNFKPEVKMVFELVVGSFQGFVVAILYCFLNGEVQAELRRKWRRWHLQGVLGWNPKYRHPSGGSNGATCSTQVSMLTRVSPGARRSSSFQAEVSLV
In short: as §1

human VPAC2 [3] = molecular target: T1, human VPAC2; test: Alpha screen cAMP in vitro potency, human VPAC2 receptor; assay type: cell-based; details: cAMP generation; single result from two analyses performed in a single run; read-out: Human VPAC2 Receptor: Alpha Screen EC50
In short: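 Stimulated cAMP accumulation is read by AlphaScreen after 60 min exposure of 50,000 non-enzymatically harvested cells to compound, followed by lysis with donor beads.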

human PAC1 = molecular target: T3, human PAC1 (Homo sapiens, UniProt P41586); test: Filter binding assay, membranes of cells transiently transfected with human PAC1, 125I-labeled PACAP-27 tracer (Table 2); design: expressed in transfected cells; details: read-out: Human PAC1 Receptor Binding
T3 sequence (P41586 21-468): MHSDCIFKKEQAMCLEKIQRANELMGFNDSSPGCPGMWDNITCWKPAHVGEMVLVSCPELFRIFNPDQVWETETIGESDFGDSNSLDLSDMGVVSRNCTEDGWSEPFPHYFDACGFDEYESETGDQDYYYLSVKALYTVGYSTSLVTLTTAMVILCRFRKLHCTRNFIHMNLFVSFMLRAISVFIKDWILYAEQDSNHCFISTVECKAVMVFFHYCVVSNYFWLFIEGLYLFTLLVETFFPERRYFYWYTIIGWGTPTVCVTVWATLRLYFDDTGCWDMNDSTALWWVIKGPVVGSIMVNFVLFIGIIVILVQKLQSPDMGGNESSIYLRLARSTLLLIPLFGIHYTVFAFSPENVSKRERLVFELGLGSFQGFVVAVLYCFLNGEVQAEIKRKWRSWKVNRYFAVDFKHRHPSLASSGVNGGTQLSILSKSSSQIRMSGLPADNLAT
In short: as §1

Row | Compound | Rat Serum Stability (estimated purity in % after 18 hours) [1] | IC50 (human VPAC2 [2]) | IC50 (human VPAC1) | EC50 (human VPAC2 [3]) | IC50 (human PAC1) | Rat Serum Stability (Estimated purity in % after 72 hours) [1]
1 | CCCCCC(=O)N[C@@H](Cc1c[nH]cn1)C(=O)N[C@@H](CO)C(=O)N[C@@H](CC(=O)O)C(=O)N[C@@H](C)C(=O)N[C@H](C(=O)N[C@@H](Cc1ccccc1)C(=O)N[C@H](C(=O)N[C@@H](CC(=O)O)C(=O)N[C@@H](CC(N)=O)C(=O)N[C@@H](Cc1ccc(O)cc1)C(=O)N[C@H](C(=O)N[C@@H](CCCNC(=N)N)C(=O)N[C@@H](CC(C)C)C(=O)N[C@@H](CCCNC(=N)N)C(=O)NC(C)(C)C(=O)N[C@@H](CCC(N)=O)C(=O)N[C@H](C(=O)N[C@@H](C)C(=O)N[C@@H](C)C(=O)N[C@@H](CCCCN)C(=O)NC(C)(C)C(=O)N[C@@H](Cc1ccc(O)cc1)C(=O)N[C@@H](CC(C)C)C(=O)N[C@@H](CCC(N)=O)C(=O)N[C@@H](CO)C(=O)N[C@H](C(=O)N[C@@H](CCCCN)C(=O)N[C@@H](CCC(N)=O)C(=O)N[C@@H](CCCCN)C(=O)NCC(=O)NCC(=O)N1CCC[C@H]1C(=O)N[C@@H](CO)C(=O)N[C@@H](CO)C(=O)NCC(=O)N[C@@H](C)C(=O)N1CCC[C@H]1C(=O)N1CCC[C@H]1C(=O)N1CCC[C@H]1C(=O)N[C@@H](CO)C(=O)O)[C@@H](C)CC)C(C)C)[C@@H](C)O)[C@@H](C)O)C(C)C [Agonist P295] (Hexanoyl-HSDAVFTDNYTRLR[Aib]QVAAK[Aib]YLQSIKQKGGPSSGAPPPS-OH; C-terminus assumed) | 22.22% | 0.75 nM | > 3000 nM | 0.39 nM | > 25000 nM | –
2 | CCCCCC(=O)N[C@@H](Cc1c[nH]cn1)C(=O)N[C@@H](CO)C(=O)N[C@@H](CC(=O)O)C(=O)N[C@@H](C)C(=O)N[C@H](C(=O)N[C@@H](Cc1ccccc1)C(=O)N[C@H](C(=O)N[C@@H](CC(=O)O)C(=O)N[C@@H](CC(N)=O)C(=O)N[C@@H](Cc1ccc(O)cc1)C(=O)N[C@H](C(=O)N[C@@H](CCCNC(=N)N)C(=O)N[C@@H](CC(C)C)C(=O)N[C@@H](CCCNC(=N)N)C(=O)NC(C)(C)C(=O)N[C@@H](CCC(N)=O)C(=O)N[C@H](C(=O)N[C@@H](C)C(=O)N[C@@H](C)C(=O)NC(C)(C)C(=O)N[C@@H](CCCCN)C(=O)N[C@@H](Cc1ccc(O)cc1)C(=O)N[C@@H](CC(C)C)C(=O)N[C@@H](CCC(N)=O)C(=O)N[C@@H](CO)C(=O)N[C@H](C(=O)N[C@@H](CCCCN)C(=O)N[C@@H](CCC(N)=O)C(=O)NCC(=O)NCC(=O)N1CCC[C@H]1C(=O)N[C@@H](CO)C(=O)N[C@@H](CO)C(=O)NCC(=O)N[C@@H](C)C(=O)N1CCC[C@H]1C(=O)N1CCC[C@H]1C(=O)N1CCC[C@H]1C(=O)N[C@@H](CO)C(=O)O)[C@@H](C)CC)C(C)C)[C@@H](C)O)[C@@H](C)O)C(C)C [Agonist P297] (Hexanoyl-HSDAVFTDNYTRLR[Aib]QVAA[Aib]KYLQSIKQGGPSSGAPPPS-OH; C-terminus assumed) | 21.17% | 1.95 nM | > 3000 nM | 0.36 nM | > 25000 nM | –
3 | CCCCCC(=O)N[C@@H](Cc1c[nH]cn1)C(=O)N[C@@H](CO)C(=O)N[C@@H](CC(=O)O)C(=O)N[C@@H](C)C(=O)N[C@H](C(=O)N[C@@H](Cc1ccccc1)C(=O)N[C@H](C(=O)N[C@@H](CC(=O)O)C(=O)N[C@@H](CC(N)=O)C(=O)N[C@@H](Cc1ccc(O)cc1)C(=O)N[C@H](C(=O)N[C@@H](CCCNC(=N)N)C(=O)N[C@@H](CC(C)C)C(=O)N[C@@H](CCCNC(=N)N)C(=O)NC(C)(C)C(=O)N[C@@H](CCC(N)=O)C(=O)N[C@H](C(=O)N[C@@H](C)C(=O)N[C@@H](C)C(=O)N[C@@H](CCCCN)C(=O)NC(C)(C)C(=O)N[C@@H](Cc1ccc(O)cc1)C(=O)N[C@@H](CC(C)C)C(=O)N[C@@H](CCC(N)=O)C(=O)N[C@@H](CO)C(=O)N[C@H](C(=O)N[C@@H](CCCCN)C(=O)N[C@@H](CCC(N)=O)C(=O)NCC(=O)NCC(=O)N1CCC[C@H]1C(=O)N[C@@H](CO)C(=O)N[C@@H](CO)C(=O)NCC(=O)N[C@@H](C)C(=O)N1CCC[C@H]1C(=O)N1CCC[C@H]1C(=O)N1CCC[C@H]1C(=O)N[C@@H](CO)C(=O)O)[C@@H](C)CC)C(C)C)[C@@H](C)O)[C@@H](C)O)C(C)C [Agonist P298] (Hexanoyl-HSDAVFTDNYTRLR[Aib]QVAAK[Aib]YLQSIKQGGPSSGAPPPS-OH; C-terminus assumed) | 30.97% | 8.2 nM | > 3000 nM | 0.5 nM | > 25000 nM | –
4 | Hexanoyl-HGEGTFTDNYTRLRKQVAAKKYLQSIKNKRYGGPSSGAPPPS [Agonist P222] | 0.23% | 1.05 nM | 177 nM | 0.51 nM | 466 nM | –
5 | Hexanoyl-HSDALFTDNYTRLRKQVAAKKYLQSIKNKRYGGPSSGAPPPS [Agonist P289] | 0.04% | 0.38 nM | 260 nM | 0.16 nM | 324 nM | –
6 | Hexanoyl-HSDAVFTDNYTRLAKQVAAKKYLQSIKNKRYGGPSSGAPPPS [Agonist P173] | 1.04% | 0.55 nM | 1790 nM | 0.25 nM | 756 nM | –
7 | Hexanoyl-HSDAVFTDNYTRLFKQVAAKKYLQSIKNKRYGGPSSGAPPPS [Agonist P175] | <0.11% | 13.3 nM | > 3000 nM | 0.68 nM | > 25000 nM | –
8 | Hexanoyl-HSDAVFTDNYTRLKKQVAAKKYLQSIKNKRYGGPSSGAPPPS [Agonist P171] | 1.78% | 5.81 nM | 174 nM | 0.82 nM | 335 nM | –
9 | Hexanoyl-HSDAVFTDNYTRLLKQVAAKKYLQSIKNKRYGGPSSGAPPPS [Agonist P174] | 1.91% | 55.1 nM | 302 nM | 0.26 nM | 621 nM | –
10 | Hexanoyl-HSDAVFTDNYTRLL[Aib]QVAA[Aib]KYLQSIKNKRYGGPSSGAPPPS [Agonist P317] | 33.34% | 1.23 nM | > 3000 nM | 0.36 nM | > 25000 nM | 21.5%
11 | Hexanoyl-HSDAVFTDNYTRLQKQVAAKKYLQSIKNKRYGGPSSGAPPPS [Agonist P172] | 5.95% | 3.58 nM | 412 nM | 0.29 nM | 500 nM | –
12 | Hexanoyl-HSDAVFTDNYTRLQKQVAAKQYLQSIKNKRYGGPSSGAPPPS [Agonist P253] | 1.27% | 1.78 nM | 2160 nM | 0.46 nM | > 25000 nM | –
13 | Hexanoyl-HSDAVFTDNYTRLQKQVAAK[Aib]YLQSIKNKRYGGPSSGAPPPS [Agonist P251] | 6.63% | 2.33 nM | > 3000 nM | 0.92 nM | > 25000 nM | –
14 | Hexanoyl-HSDAVFTDNYTRLQKQVAAQKYLQSIKNKRYGGPSSGAPPPS [Agonist P252] | 1.19% | 0.98 nM | 1180 nM | 0.26 nM | > 25000 nM | –
15 | Hexanoyl-HSDAVFTDNYTRLQKQVAA[Aib]KYLQSIKNKRYGGPSSGAPPPS [Agonist P250] | 7.11% | 0.63 nM | 855 nM | 0.18 nM | > 25000 nM | –
